Target: T1, CCR4 receptor (Homo sapiens, UniProt P51679)
T1 construct: beta-galactosidase enzyme-fragment tag (receptor modification for beta-arrestin complementation); expressed in transfected cells; host or cells: CHO-K1
T1 sequence (P51679 1-360): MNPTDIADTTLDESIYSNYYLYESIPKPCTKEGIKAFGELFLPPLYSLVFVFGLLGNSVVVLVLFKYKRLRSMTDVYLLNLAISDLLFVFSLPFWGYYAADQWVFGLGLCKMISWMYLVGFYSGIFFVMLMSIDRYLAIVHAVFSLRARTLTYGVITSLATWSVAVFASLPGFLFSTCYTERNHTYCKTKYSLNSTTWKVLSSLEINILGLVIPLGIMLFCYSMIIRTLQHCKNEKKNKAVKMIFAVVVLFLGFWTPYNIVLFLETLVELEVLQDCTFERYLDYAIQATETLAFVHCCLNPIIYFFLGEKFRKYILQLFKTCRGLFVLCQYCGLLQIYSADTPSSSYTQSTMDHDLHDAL
Experiment: CCR4 antagonist activity in beta-arrestin cellular assay (PathHunter chemiluminescence)
Type: cell-based
Details: CHO-K1 cells expressing CCR4; 30 min pre-incubation; CCL22 challenge at EC80 (15 nM) for 90 minutes; read-out: Potency (CCR4 antagonist IC50 in the β-arrestin assay)
Procedure: CCR4 Antagonistic Activity was assessed in Beta-Arrestin Cellular Assay. Compounds were assessed in CHO-K1 cells expressing the CCR4 receptor modified to enable β-glactosidase detection of p-arrestin agonist activity stimulated by CCL22 in a chemiluminescence assay. Cells were seeded in a total volume of 20 μL into white walled, 384-well microplates and incubated at 37° C. prior to testing. Cells were pre-incubated with test compound for 30 min at 37° C. followed by agonist challenge with CCL22 at the EC80 concentration (15 nM) for 90 minutes. Assay signal was generated through a single addition of 12.5 or 15 μL (50% v/v) of PathHunter Detection reagent cocktail, followed by a one hour incubation at room temperature. Microplates were read following signal generation with a PerkinElmer Envision™ instrument for chemiluminescent signal detection. Antagonist activity was analyzed using CBIS data analysis suite (ChemInnovation, CA). Antagonist activity was characterized as percentage inhibition calculated using the following formula: % Inhibition=100%×(1−(mean RLU of test sample−mean RLU of vehicle control)/(mean RLU of EC80 control−mean RLU of vehicle control)).
An IC50 of >500 nM is designated as Potency C, an IC50 of between 500 nM and 200 nM is designated as Potency B and an IC50 of <200 nM is designated as Potency A.

With `C[C@@H](Nc1nc(N2CCC(C3CCCN(C4CC(C(=O)O)C4)C3)CC2)ncc1Cl)c1ccc(Cl)cc1Cl` (stereo partly drawn) [Example 12, 3-(1′-(5-chloro-4-(((R)-1-(2,4-dichlorophenyl)ethyl)amino)pyrimidin-2-yl)-[3,4′-bipiperidin]-1-yl)cyclobutane-1-carboxylic Acid] as the compound, how does the IC50 read?
The IC50 was under 200 nM.

Which IC50 does the source give for `Cc1nc(N2CCC(C3CCCN(C(C)C(=O)O)C3)CC2)nc(N[C@H](C)c2ccc(Cl)cc2Cl)c1Cl` (stereo partly drawn) [Example 14, 2-(1′-(5-chloro-4-(((R)-1-(2,4-dichlorophenyl)ethyl)amino)-6-methylpyrimidin-2-yl)-[3,4′-bipiperidin]-1-yl)propanoic Acid] here?
Its IC50 is under 200 nM.

How did the IC50 turn out when `Cc1nc(N2CCC(C3CCCCN3C3CC(C)(C(=O)O)C3)C2)nc(N[C@H](C)c2ccc(Cl)cc2Cl)c1Cl` (stereo partly drawn) [Example 11, 3-(2-(1-(5-chloro-4-(((R)-1-(2,4-dichlorophenyl)ethyl)amino)-6-methylpyrimidin-2-yl)pyrrolidin-3-yl)piperidin-1-yl)-1-methylcyclobutane-1-carboxylic Acid] was run?
Its IC50 is 200 to 500 nM.

`Cc1nc(N2CCC(C3CN(C4CC(C)(C(=O)O)C4)C3)C2)nc(N[C@H](C)c2ccc(Cl)cc2Cl)c1Cl` (mixture of isomers) [Example 3, 3-(3-(1-(5-chloro-4-(((R)-1-(2,4-dichlorophenyl)ethyl)amino)-6-methylpyrimidin-2-yl)pyrrolidin-3-yl)azetidin-1-yl)-1-methylcyclobutane-1-carboxylic Acid] was tested. Which IC50 did it give?
Its IC50 is over 500 nM.

How did the IC50 turn out when `C[C@@H](Nc1nc(N2CCC(C3CCCN(CCC(=O)O)C3)CC2)ncc1Cl)c1ccc(Cl)cc1Cl` (stereo partly drawn) [Example 16, 3-(1′-(5-chloro-4-(((R)-1-(2,4-dichlorophenyl)ethyl)amino)pyrimidin-2-yl)-[3,4′-bipiperidin]-1-yl)propanoic Acid] was run?
Its IC50 is under 200 nM.

Which IC50 does the source give for `C[C@@H](Nc1nc(N2CCC(C3CCCCN3C3CC(C)(C(=O)O)C3)C2)ncc1Cl)c1ccc(Cl)cc1Cl` (stereo partly drawn) [Example 9, 3-(2-(1-(5-chloro-4-(((R)-1-(2,4-dichlorophenyl)ethyl)amino)pyrimidin-2-yl)pyrrolidin-3-yl)piperidin-1-yl)-1-methylcyclobutane-1-carboxylic Acid] here?
The IC50 was under 200 nM.

With `Cc1nc(N2CCC(C3CCCN(C4CC(C)(C(=O)O)C4)C3)C2)nc(N[C@H](C)c2ccc(Cl)cc2Cl)c1Cl` (stereo partly drawn) [Example 1, 3-(3-(1-(5-chloro-4-(((R)-1-(2,4-dichlorophenyl)ethyl)amino)-6-methylpyrimidin-2-yl)pyrrolidin-3-yl)piperidin-1-yl)-1-methylcyclobutane-1-carboxylic Acid] as the compound, how does the IC50 read?
The IC50 was under 200 nM.

How did the IC50 turn out when `CC(C(=O)O)N1CCCC(C2CCN(c3ncc(Cl)c(N[C@H](C)c4ccc(Cl)cc4Cl)n3)CC2)C1` (stereo partly drawn) [Example 15, 2-(1′-(5-chloro-4-(((R)-1-(2,4-dichlorophenyl)ethyl)amino)pyrimidin-2-yl)-[3,4′-bipiperidin]-1-yl)propanoic Acid] was run?
Its IC50 is under 200 nM.

How did the IC50 turn out when `Cc1nc(N2CCC(C3CCN(C4CC(C)(C(=O)O)C4)C3)C2)nc(N[C@H](C)c2ccc(Cl)cc2Cl)c1Cl` (stereo partly drawn) [Example 4, 3-(1′-(5-chloro-4-(((R)-1-(2,4-dichlorophenyl)ethyl)amino)-6-methylpyrimidin-2-yl)-[3,3′-bipyrrolidin]-1-yl)-1-methylcyclobutane-1-carboxylic Acid] was run?
Its IC50 is 200 to 500 nM.

With `Cc1nc(N2CCC(C3CCCN(C4CC(C)(C(=O)O)C4)C3)CC2)nc(N[C@H](C)c2ccc(Cl)cc2Cl)c1Cl` (stereo partly drawn) [Example 2, 3-(1′-(5-chloro-4-(((R)-1-(2,4-dichlorophenyl)ethyl)amino)-6-methylpyrimidin-2-yl)-[3,4′-bipiperidin]-1-yl)-1-methylcyclobutane-1-carboxylic Acid] as the compound, how does the IC50 read?
Its IC50 is under 200 nM.

For `C[C@@H](Nc1nc(N2CCC(C3CCCCN3)C2)ncc1Cl)c1ccc(Cl)cc1Cl` (mixture of isomers) [Example 8, 5-chloro-N—((R)-1-(2,4-dichlorophenyl)ethyl)-2-(3-(piperidin-2-yl)pyrrolidin-1-yl)pyrimidin-4-amine], which IC50 is on record?
The IC50 was under 200 nM.

How did the IC50 turn out when `Cc1nc(N2CCC(C3CCCN(CCC(=O)O)C3)CC2)nc(N[C@H](C)c2ccc(Cl)cc2Cl)c1Cl` (stereo partly drawn) [Example 17, 3-(1′-(5-chloro-4-(((R)-1-(2,4-dichlorophenyl)ethyl)amino)-6-methylpyrimidin-2-yl)-[3,4′-bipiperidin]-1-yl)propanoic Acid] was run?
The IC50 was under 200 nM.

For `C[C@@H](Nc1nc(N2CCC(C3CCN(C4CC(C)(C(=O)O)C4)C3)C2)ncc1Cl)c1ccc(Cl)cc1Cl` (stereo partly drawn) [Example 7, 3-(1′-(5-chloro-4-(((R)-1-(2,4-dichlorophenyl)ethyl)amino)pyrimidin-2-yl)-[3,3′-bipyrrolidin]-1-yl)-1-methylcyclobutane-1-carboxylic Acid], which IC50 is on record?
Its IC50 is 200 to 500 nM.

With `C[C@@H](Nc1nc(N2CCC(C3CCCN(C4CC(C)(C(=O)O)C4)C3)C2)ncc1Cl)c1ccc(Cl)cc1Cl` (stereo partly drawn) [Example 5, 3-(3-(1-(5-chloro-4-(((R)-1-(2,4-dichlorophenyl)ethyl)amino)pyrimidin-2-yl)pyrrolidin-3-yl)piperidin-1-yl)-1-methylcyclobutane-1-carboxylic Acid] as the compound, how does the IC50 read?
The IC50 was under 200 nM.

How did the IC50 turn out when `C[C@@H](Nc1nc(N2CCC(C3CCCN(C4CC(C)(C(=O)O)C4)C3)CC2)ncc1Cl)c1ccc(Cl)cc1Cl` (mixture of isomers) [Example 6, 3-(1′-(5-chloro-4-(((R)-1-(2,4-dichlorophenyl)ethyl)amino)pyrimidin-2-yl)-[3,4′-bipiperidin]-1-yl)-1-methylcyclobutane-1-carboxylic Acid] was run?
The IC50 was under 200 nM.

`Cc1nc(N2CCC(C3CCCN(C4CC(C(=O)O)C4)C3)CC2)nc(N[C@H](C)c2ccc(Cl)cc2Cl)c1Cl` (stereo partly drawn) [Example 13, 3-(1′-(5-chloro-4-(((R)-1-(2,4-dichlorophenyl)ethyl)amino)-6-methylpyrimidin-2-yl)-[3,4′-bipiperidin]-1-yl)cyclobutane-1-carboxylic Acid] was tested. Which IC50 did it give?
The IC50 was under 200 nM.

`Cc1nc(N2CCC(C3CCCCN3)C2)nc(N[C@H](C)c2ccc(Cl)cc2Cl)c1Cl` (mixture of isomers) [Example 10, 5-chloro-N—((R)-1-(2,4-dichlorophenyl)ethyl)-6-methyl-2-(3-(piperidin-2-yl)pyrrolidin-1-yl)pyrimidin-4-amine] was tested. Which IC50 did it give?
The IC50 was 200 to 500 nM.
